The target in this test is T1, human GalR3 receptor (Homo sapiens, UniProt O60755).
T1 construct: expressed in transfected cells; host or cells: mouse fibroblast LM(tk-) cells, stably transfected; membranes
T1 sequence (O60755 1-368): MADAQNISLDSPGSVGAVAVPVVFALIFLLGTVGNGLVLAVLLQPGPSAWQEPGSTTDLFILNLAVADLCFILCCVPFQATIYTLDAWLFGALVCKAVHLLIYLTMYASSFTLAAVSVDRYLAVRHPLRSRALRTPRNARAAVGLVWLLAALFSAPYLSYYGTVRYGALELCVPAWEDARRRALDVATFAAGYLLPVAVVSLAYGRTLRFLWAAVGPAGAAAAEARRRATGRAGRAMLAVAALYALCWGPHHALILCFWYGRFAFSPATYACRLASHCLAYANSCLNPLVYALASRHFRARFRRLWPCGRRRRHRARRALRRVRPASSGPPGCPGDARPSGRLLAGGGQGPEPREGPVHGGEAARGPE
As to the kind of experiment: Radioligand binding assay at cloned human GalR3 receptor. As to conditions: Binding Data; membranes from LM(tk-) cells stably transfected with the human GalR3 receptor. As to the method: LM(tk-) cells were stably transfected with the human GalR3 receptor. cDNAs for the human and rat GalR3 receptors were transfected with a G-418 resistant gene into the mouse fibroblast LM(tk-) cell line by a calcium phosphate transfection method (Cullen, 1987). Membranes were harvested from stably transfected LM(tk-) cells. Adherent cells were washed twice in ice-cold phosphate buffered saline (138 mM NaCl, 8.1 mM Na2HPO4, 2.5 mM KCl, 1.2 mM KH2PO4, 0.9 mM CaCl2, 0.5 mM MgCl2, pH 7.4) and lysed by sonication in ice-cold sonication buffer (20 mM Tris-HCl, 5 mM EDTA, pH 7.7). Large particles and debris were cleared by low speed centrifugation (200×g, 5 min, 4° C.). Membranes were collected from the supernatant fraction by centrifugation (32,000×g, 18 min, 4° C.), washed with ice-cold hypotonic buffer, and collected again by centrifugation (32,000×g, 18 min, 4° C.). The final membrane pellet was resuspended by sonication into a small volume of ice-cold binding buffer (˜1 ml for every 5 plates: 10 mM NaCl, 20 mM HEPES, 0.22 mM KH2PO4, 1.26 mM CaCl2, 0.81 mM MgSO4, pH 7.4). Protein concentration was measured by the Bradford method (Bradford, 1976) using Bio-Rad Reagent, with bovine serum albumin as a standard. Membranes were held on ice for up to one hour and used fresh, or flash frozen and stored in liquid nitrogen. Membranes were prepared similarly from CHO cells. The methods to obtain the cDNA of the receptors, express said receptors in heterologous systems, and carry out assays to determine binding affinity are described as follows. Binding assays were performed according to the following published method: human GALR3 (PCT International Publication No. WO 02/060392).

As to `C[C@H]1CN(c2nc(Nc3cccc(OCc4ccccc4)c3)cc(N(C)C)n2)C[C@H](C)O1` (racemic) [Example 48, (±)-N^4-[3-(BENZYLOXY)PHENYL]-2-(TRANS-2,6-DIMETHYL MORPHOLINYL)-N^6,N^6-DIMETHYL-4,6-PYRIMIDINEDIAMINE], the Ki (usually a measure of affinity in units of concentration, obtained from inhibition or displacement) is 30 nM.
Under `Cc1ccc(Nc2cc(N(C)C)nc(N3CCN(c4cccc(Cl)c4)CC3)n2)cc1` [Example 1, 2-[4-(3-CHLOROPHENYL)-1-PIPERAZINYL]-N^4,N^4-DIMETHYL-N^6-(4-METHYLPHENYL)-4,6-PYRIMIDINEDIAMINE] stands 65 nM.
To `CN(C)c1cc(Nc2ccc3c(c2)CCC3)nc(N2CCN(c3cccc(Cl)c3)CC2)n1` [Example 2, 2-[4-(3-CHLOROPHENYL)-1-PIPERAZINYL]-N^4-(2,3-DIHYDRO-1H-INDEN-5-YL)-N^6,N^6-DIMETHYL-4,6-PYRIMIDINEDIAMINE] belongs 34 nM.
To `Cc1ccc(Nc2cc(N(C)C)nc(N3CCN(c4ccccc4Cl)CC3)n2)cc1` [Example 3, 2-[4-(2-CHLOROPHENYL)-1-PIPERAZINYL]-N^4,N^4-DIMETHYL-N^6-(4-METHYLPHENYL)-4,6-PYRIMIDINEDIAMINE] belongs 29 nM; to `CN(C)c1cc(Nc2ccc3c(c2)CCC3)nc(N2CCN(c3ccccc3Cl)CC2)n1` [Example 4, 2-[4-(2-CHLOROPHENYL)-1-PIPERAZINYL]-N^4-(2,3-DIHYDRO-1H-INDEN-5-YL)-N^6,N^6-DIMETHYL-4,6-PYRIMIDINEDIAMINE], 54 nM.
For `Cc1ccc(Nc2cc(N(C)C)nc(N3CCN(c4ccccc4F)CC3)n2)cc1` [Example 5, 2-[4-(2-FLUOROPHENYL)-1-PIPERAZINYL]-N^4,N^4-DIMETHYL-N^6-(4-METHYLPHENYL)-4,6-PYRIMIDINEDIAMINE], affinity was put at a Ki of 117 nM.
To `CN(C)c1cc(Nc2ccc3c(c2)CCC3)nc(N2CCN(c3ccc(Cl)cc3)CC2)n1` [Example 6, 2-[4-(4-CHLOROPHENYL)-1-PIPERAZINYL]-N^4-(2,3-DIHYDRO-1H-INDEN-5-YL)-N^6,N^6-DIMETHYL-4,6-PYRIMIDINEDIAMINE] belongs 52 nM.
To `Cc1ccc(Nc2cc(N(C)C)nc(N3CCN(c4ccc(Cl)cc4)CC3)n2)cc1` [Example 7, 2-[4-(4-CHLOROPHENYL)-1-PIPERAZINYL]-N^4,N^4-DIMETHYL-N^6-(4-METHYLPHENYL)-4,6-PYRIMIDINEDIAMINE] belongs 352 nM.
To `COc1cccc(Nc2cc(N(C)C)nc(N3CCN(c4cccc(Cl)c4)CC3)n2)c1` [Example 8, 2-[4-(3-CHLOROPHENYL)-1-PIPERAZINYL]-N^4-(3-METHOXYPHENYL)-N^6,N^6-DIMETHYL-4,6-PYRIMIDINEDIAMINE] belongs 107 nM; to `CN(C)c1cc(Nc2ccc(C3CCCCC3)cc2)nc(N2CCN(c3cccc(Cl)c3)CC2)n1` [Example 9, 2-[4-(3-CHLOROPHENYL)-1-PIPERAZINYL]-N^4-(4-CYCLOHEXYLPHENYL)-N^6,N^6-DIMETHYL-4,6-PYRIMIDINEDIAMINE], 241 nM.
As to `CN(C)c1cc(Nc2ccc(C3CCCCC3)cc2)nc(N2CCN(c3ccc(Cl)cc3)CC2)n1` [Example 10, 2-[4-(4-CHLOROPHENYL)-1-PIPERAZINYL]-N^4-(4-CYCLOHEXYLPHENYL)-N^6,N^6-DIMETHYL-4,6-PYRIMIDINEDIAMINE], the Ki was 47 nM.
Compound `COc1cccc(Nc2cc(N(C)C)nc(N3CCN(c4ccccc4Cl)CC3)n2)c1` [Example 11, 2-[4-(2-CHLOROPHENYL)-1-PIPERAZINYL]-N^4-(3-METHOXYPHENYL)-N^6,N^6-DIMETHYL-4,6-PYRIMIDINEDIAMINE] came in with an inhibitory constant (Ki) of 62 nM.
Under `CN(C)c1cc(Nc2ccc3c(c2)CCC3)nc(N2CCN(c3ccccc3F)CC2)n1` [Example 12, N^4-(2,3-DIHYDRO-1H-INDEN-5-YL)-2-[4-(2-FLUOROPHENYL)-1-PIPERAZINYL]-N^6,N^6-DIMETHYL-4,6-PYRIMIDINEDIAMINE] stands 75 nM; under `COc1cccc(Nc2cc(N(C)C)nc(N3CCN(c4ccccc4F)CC3)n2)c1` [Example 13, 2-[4-(2-FLUOROPHENYL)-1-PIPERAZINYL]-N^4-(3-METHOXYPHENYL)-N^6,N^6-DIMETHYL-4,6-PYRIMIDINEDIAMINE], 93 nM; under `CN(C)c1cc(Nc2ccc(SC(F)(F)F)c(Cl)c2)nc(N2CCN(c3ccccc3F)CC2)n1` [Example 14, N^4-{3-CHLORO-4-[(TRIFLUOROMETHYL)SULFANYL]PHENYL}-2-[4-(2-FLUOROPHENYL)-1-PIPERAZINYL]-N^6,N^6-DIMETHYL-4,6-PYRIMIDINEDIAMINE], 158 nM.
Under `COc1cccc(Nc2cc(N(C)C)nc(N3CCN(c4ccc(Cl)cc4)CC3)n2)c1` [Example 15, 2-[4-(4-CHLOROPHENYL)-1-PIPERAZINYL]-N^4-(3-METHOXYPHENYL)-N^6,N^6-DIMETHYL-4,6-PYRIMIDINEDIAMINE] stands 88 nM; under `CN(C)c1cc(Nc2ccc(Cl)c(Cl)c2)nc(N2CCN(c3cccc(Cl)c3)CC2)n1` [Example 16, 2-[4-(3-CHLOROPHENYL)-1-PIPERAZINYL]-N^4-(3,4-DICHLOROPHENYL)-N^6,N^6-DIMETHYL-4,6-PYRIMIDINEDIAMINE], 34 nM; under `Cc1ccc(Nc2cc(N(C)C)nc(N3CCN(c4ccccc4Cl)CC3)n2)cc1C` [Example 17, 2-[4-(2-CHLOROPHENYL)-1-PIPERAZINYL]-N^4-(3,4-DIMETHYLPHENYL)-N^6,N^6-DIMETHYL-4,6-PYRIMIDINEDIAMINE], 57 nM.
Under `CN(C)c1cc(Nc2ccc(C3CCCCC3)cc2)nc(N2CCN(c3ccccc3F)CC2)n1` [Example 18, N^4-(4-CYCLOHEXYLPHENYL)-2-[4-(2-FLUOROPHENYL)-1-PIPERAZINYL]-N^6,N^6-DIMETHYL-4,6-PYRIMIDINEDIAMINE] stands 46 nM.
Compound `Cc1ccc(Nc2cc(N(C)C)nc(N3CCN(c4ccccc4F)CC3)n2)cc1C` [Example 19, N^4-(3,4-DIMETHYLPHENYL)-2-[4-(2-FLUOROPHENYL)-1-PIPERAZINYL]-N^6,N^6-DIMETHYL-4,6-PYRIMIDINEDIAMINE] registered a Ki of 118 nM.
To `CN(C)c1cc(Nc2ccc(SC(F)(F)F)c(Cl)c2)nc(N2CCN(c3cccc(Cl)c3)CC2)n1` [Example 20, 2-[4-(3-CHLOROPHENYL)-1-PIPERAZINYL]-N^4-{3-CHLORO-4-[(TRIFLUOROMETHYL) SULFANYL]PHENYL}-N^6,N^6-DIMETHYL-4,6-PYRIMIDINEDIAMINE] belongs 318 nM; to `CN(C)c1cc(Nc2ccc(Cl)c(Cl)c2)nc(N2CCN(c3ccccc3Cl)CC2)n1` [Example 21, 2-[4-(2-CHLOROPHENYL)-1-PIPERAZINYL]-N^4-(3,4-DICHLOROPHENYL)-N^6,N^6-DIMETHYL-4,6-PYRIMIDINEDIAMINE], 63 nM; to `CN(C)c1cc(Nc2ccc(SC(F)(F)F)c(Cl)c2)nc(N2CCN(c3ccccc3Cl)CC2)n1` [Example 22, 2-[4-(2-CHLOROPHENYL)-1-PIPERAZINYL]-N^4-{3-CHLORO-4-[(TRIFLUOROMETHYL) SULFANYL]PHENYL}-N^6,N^6-DIMETHYL-4,6-PYRIMIDINE DIAMINE], 182 nM.
In turn, `Cc1ccc(Nc2cc(N(C)C)nc(N3CCN(c4ccc(Cl)cc4)CC3)n2)cc1C` [Example 23, 2-[4-(4-CHLOROPHENYL)-1-PIPERAZINYL]-N^4-(3,4-DIMETHYLPHENYL)-N^6,N^6-DIMETHYL-4,6-PYRIMIDINEDIAMINE] had a Ki of 129 nM.
For the compound `CN(C)c1cc(Nc2cccc(OCc3ccccc3)c2)nc(N2CCN(c3ccccc3F)CC2)n1` [Example 24, N^4-[3-(BENZYLOXY)PHENYL]-2-[4-(2-FLUOROPHENYL)-1-PIPERAZINYL]-N^6,N^6-DIMETHYL-4,6-PYRIMIDINEDIAMINE], the Ki was 20 nM.
Under `CN(C)c1cc(Nc2cccc(OCc3ccccc3)c2)nc(N2CCN(c3ccccc3Cl)CC2)n1` [Example 25, N^4-[3-(BENZYLOXY)PHENYL]-2-[4-(2-CHLOROPHENYL)-1-PIPERAZINYL]-N^6,N^6-DIMETHYL-4,6-PYRIMIDINEDIAMINE] stands 16 nM; under `Cc1ccc(Nc2cc(N(C)C)nc(N3CCN(c4ccccn4)CC3)n2)cc1NC(C)C` [Example 26, N^4-[3-(ISOPROPYLAMINO)-4-METHYLPHENYL]-N^6,N^6-DIMETHYL-2-[4-(2-PYRIDINYL)-1-PIPERAZINYL]-4,6-PYRIMIDINEDIAMINE], 246 nM; under `CN(C)c1cc(Nc2cccc(OCc3ccccc3)c2)nc(N2CCN(c3cccc(Cl)c3)CC2)n1` [Example 27, N^4-[3-(BENZYLOXY)PHENYL]-2-[4-(3-CHLOROPHENYL)-1-PIPERAZINYL]-N^6,N^6-DIMETHYL-4,6-PYRIMIDINEDIAMINE], 28 nM.

Source of the values: US6936607B2, “2,4,6-Triaminopyrimidines for the treatment of depression and/or anxiety” (H. Lunobeck A/S, priority 2002, dated 2005).
